Legend:
[1] = pro-drug conversion to the active moiety in human plasma; assay type: in vitro ADME
[2] = system: human colorectal (SW620, HCT116, Colo205) and lung (A549, Calu-6) tumour xenografts; assay: tumour growth inhibition in human tumour xenografts; assay type: in vivo; settings: panel of human colorectal (SW620, HCT116, Colo205) and lung (A549, Calu-6) tumour xenografts; with statistical significance

conversion of pro-drug to active moiety AZD1152 HQPA [1]: rapidly and completely converted
SMILES: CCN(CCCOc1ccc2c(Nc3cc(CC(=O)Nc4cccc(F)c4)n[nH]3)ncnc2c1)CCOP(=O)(O)O [AZD1152, 2-{ethyl[3-({4-[(5-{2-[(3-fluorophenyl)amino]-2-oxoethyl}-1H-pyrazol-3-yl)amino]quinazolin-7-yl}oxy)propyl]amino}ethyl dihydrogen phosphate]
inhibition of tumour growth [2]: inhibit tumour growth
